Data as given in the Kinase Knowledgebase extract (Sharma et al. 2016).

Target: PIK3CA (human) (UniProt P42336)
Assay: Assessment of PI3KCA Kinase Activity

Chain of PIK3CA (human) (P42336 whole entry, looked up): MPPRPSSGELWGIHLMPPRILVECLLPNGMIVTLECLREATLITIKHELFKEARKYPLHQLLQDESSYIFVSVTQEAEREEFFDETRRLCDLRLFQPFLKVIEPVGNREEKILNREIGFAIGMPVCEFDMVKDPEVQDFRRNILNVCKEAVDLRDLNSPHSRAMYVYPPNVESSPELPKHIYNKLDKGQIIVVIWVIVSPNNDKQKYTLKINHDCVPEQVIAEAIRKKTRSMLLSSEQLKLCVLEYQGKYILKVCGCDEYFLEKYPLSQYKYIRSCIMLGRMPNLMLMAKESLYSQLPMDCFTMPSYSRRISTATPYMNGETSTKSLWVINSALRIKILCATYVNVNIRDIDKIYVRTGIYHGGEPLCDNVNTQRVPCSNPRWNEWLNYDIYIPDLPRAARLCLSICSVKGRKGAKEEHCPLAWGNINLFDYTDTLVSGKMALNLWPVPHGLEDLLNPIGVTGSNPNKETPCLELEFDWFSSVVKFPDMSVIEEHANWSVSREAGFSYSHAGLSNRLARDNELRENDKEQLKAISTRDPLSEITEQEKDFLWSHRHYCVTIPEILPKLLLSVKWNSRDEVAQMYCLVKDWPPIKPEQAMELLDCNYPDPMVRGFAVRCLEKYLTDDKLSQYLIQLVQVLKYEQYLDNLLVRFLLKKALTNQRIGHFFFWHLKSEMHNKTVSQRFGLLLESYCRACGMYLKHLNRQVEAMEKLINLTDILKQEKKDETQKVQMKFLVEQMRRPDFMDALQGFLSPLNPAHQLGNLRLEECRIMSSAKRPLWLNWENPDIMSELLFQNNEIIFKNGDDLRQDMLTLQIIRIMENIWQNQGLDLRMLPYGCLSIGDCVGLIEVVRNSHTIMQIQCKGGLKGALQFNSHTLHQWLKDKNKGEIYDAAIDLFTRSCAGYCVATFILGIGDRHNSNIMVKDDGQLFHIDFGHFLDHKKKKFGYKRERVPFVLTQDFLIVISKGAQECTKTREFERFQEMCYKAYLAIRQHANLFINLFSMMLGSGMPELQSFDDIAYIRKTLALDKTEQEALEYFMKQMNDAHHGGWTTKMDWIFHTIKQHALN

Compound | IC50
Cc1nn2ccccc2c1-c1nc(-c2cccc(OCc3ccccc3)c2)c(-c2nc[nH]n2)s1 | 100 to 1000 nM
Cc1nn2ccc(OCc3ccccc3)cc2c1-c1nc(-c2ccccc2)c(-c2nnc[nH]2)s1 | < 100 nM
Cc1nn2ccsc2c1-c1nc(-c2ccccc2)c(-c2cocn2)s1 | 100 to 1000 nM
Cc1nn2ccsc2c1-c1nc(-c2ccccc2)c(-c2nccs2)s1 | < 100 nM
CC(C)(C)Nc1nc2c(-c3cc(-c4ccc(Cl)cc4Cl)c(-c4ncc[nH]4)s3)ncnc2s1 | < 100 nM
Cc1nn2ccccc2c1-c1nc(-c2cnn(C)c2C)c(-c2nc[nH]n2)s1 | < 100 nM
Cc1nn2ccccc2c1-c1nc(-c2ccc(F)cc2F)c(-c2nc[nH]n2)s1 | < 100 nM
N#Cc1c(-c2ccnc(N)c2)sc(-c2cnn[nH]2)c1-c1ccc(Cl)cc1Cl | 100 to 1000 nM
Cc1nn2ccccc2c1-c1nc(-c2c(F)cccc2F)c(-c2nc[nH]n2)s1 | < 100 nM
O=c1ccc2c(-c3nc(-c4ccc(Cl)cc4Cl)c(-c4ncc[nH]4)s3)ccnc2[nH]1 | < 100 nM
COCCCNc1nccc(-c2sc(-c3nnc[nH]3)c(-c3ccc(Cl)cc3Cl)c2C#N)n1 | < 100 nM
O=C1CCc2c(-c3cc(-c4ccc(Cl)cc4Cl)c(-c4ncc[nH]4)s3)ccnc2N1 | < 100 nM
Cc1nn2ccccc2c1-c1nc(-c2cc(F)ccc2F)c(-c2nc[nH]n2)s1 | < 100 nM
CNc1cc(-c2sc(-c3ncc[nH]3)c(-c3ccc(Cl)cc3Cl)c2C#N)ccn1 | < 100 nM
Cc1nc2ccc(C=O)cn2c1-c1nc(-c2ccccc2)c(-c2nnc[nH]2)s1 | < 100 nM
Cc1nn2ccsc2c1-c1nc(-c2ccccc2)c(-c2nnn[nH]2)s1 | 100 to 1000 nM
Cc1nn2ccc(OCCN3CCC(F)CC3)cc2c1-c1nc(-c2ccccc2)c(-c2nc[nH]n2)s1 | < 100 nM
Cc1nn2ccc(OC3CCNCC3)cc2c1-c1nc(-c2ccccc2)c(-c2nc[nH]n2)s1 | < 100 nM
N#Cc1c(-c2ccnc(NS(N)(=O)=O)c2)sc(-c2nnc[nH]2)c1-c1ccc(Cl)cc1Cl | 100 to 1000 nM
Cc1nn2ccccc2c1-c1nc(-c2ccccc2C(F)(F)F)c(-c2nnc[nH]2)s1 | < 100 nM
Clc1ccc(-c2cc(-c3ncnc4[nH]ccc34)sc2-c2ncc[nH]2)c(Cl)c1 | < 100 nM

Compound | IC50
Cc1nn2ccccc2c1-c1nc(-c2c(F)cccc2Cl)c(-c2nc[nH]n2)s1 | < 100 nM
Cc1nn2ccccc2c1-c1nc(-c2cc(C=O)ccc2Cl)c(-c2nnc[nH]2)s1 | < 100 nM
Cc1nc(NC(=O)C2CC2)sc1-c1nc(-c2ccccc2)c(-c2nc[nH]n2)s1 | < 100 nM
Cc1nn2ccsc2c1-c1nc(-c2nc[nH]n2)c(-c2ccccc2)s1 | 100 to 1000 nM
CC(=O)Nc1cc(-c2sc(-c3ncc[nH]3)c(-c3ccc(Cl)cc3Cl)c2C#N)ccn1 | < 100 nM
Cc1nn2ccsc2c1-c1nc(-c2ccccc2)c(-c2nnc[nH]2)s1 | < 100 nM
Cc1nn2ccccc2c1-c1nc(-c2ccccc2N)c(-c2nc[nH]n2)s1 | < 100 nM
N=C(N)Nc1cc(-c2cc(-c3ccc(Cl)cc3Cl)c(-c3ncc[nH]3)s2)ccn1 | 100 to 1000 nM
Cc1nc2ccc(CNCCN)cn2c1-c1nc(-c2ccccc2)c(-c2nnc[nH]2)s1 | < 100 nM
COc1ccc(-c2ccc3nc(C)c(-c4nc(-c5ccccc5)c(-c5nc[nH]n5)s4)n3c2)cc1OC | < 100 nM
Cc1nn2ccc(N3CCOCC3)cc2c1-c1nc(-c2ccccc2)c(-c2nc[nH]n2)s1 | < 100 nM
Cc1nn2ccccc2c1-c1nc(-c2cnn(Cc3cccnc3)c2)c(-c2nc[nH]n2)s1 | 100 to 1000 nM
Nc1cc(-c2cc(-c3ccc(Cl)cc3Cl)c(-c3ncc[nH]3)s2)ccn1 | < 100 nM
c1ccc(-c2nc(-c3cnn4ccccc34)sc2-c2nnc[nH]2)cc1 | 100 to 1000 nM
Nc1nc2c(-c3cc(-c4ccc(Cl)cc4Cl)c(-c4ncc[nH]4)s3)ncnc2s1 | < 100 nM
Clc1ccc(-c2cc(-c3ccnc4ccccc34)sc2-c2ncc[nH]2)c(Cl)c1 | 100 to 1000 nM
N#Cc1c(-c2cc(N)nc(F)c2)sc(-c2nnc[nH]2)c1-c1ccc(Cl)cc1Cl | 100 to 1000 nM
Cc1nn2ccccc2c1-c1nc(-c2cccc(C(F)(F)F)c2)c(-c2nc[nH]n2)s1 | 100 to 1000 nM
Cc1nn2ccccc2c1-c1nc(-c2cnc3[nH]ccc3c2)c(-c2nc[nH]n2)s1 | < 100 nM
Cc1nn2ccccc2c1-c1nc(C2CCCCC2)c(-c2nnc[nH]2)s1 | < 100 nM
Cc1nn2ccsc2c1-c1nc(-c2ccc(F)c(F)c2)c(-c2nnc[nH]2)s1 | < 100 nM

Compound | IC50
CC(=O)Nc1cc(-c2nc(-c3ccc(Cl)cc3Cl)c(-c3ncc[nH]3)s2)ncn1 | < 100 nM
Cc1nc2sccn2c1-c1nc(-c2ccccc2)c(-c2nnc[nH]2)s1 | < 100 nM
COC(=O)c1cnc(-c2sc(-c3ccnc(NC(C)=O)c3)c(C#N)c2-c2ccc(Cl)cc2Cl)[nH]1 | 100 to 1000 nM
Cc1nn2ccc(OCCNC(=O)C(C)(C)C)cc2c1-c1nc(-c2ccccc2)c(-c2nc[nH]n2)s1 | < 100 nM
Cc1nc2ccc(CN3CCNCC3)cn2c1-c1nc(-c2ccccc2)c(-c2nnc[nH]2)s1 | < 100 nM
CC(=O)NCCOc1ccn2nc(C)c(-c3nc(-c4ccccc4)c(-c4nc[nH]n4)s3)c2c1 | < 100 nM
Cc1nn2ccccc2c1-c1nc(-c2ccc(CN)cc2)c(-c2nc[nH]n2)s1 | 100 to 1000 nM
Clc1ccc(-c2cc(-c3ccnc4sccc34)sc2-c2ncc[nH]2)c(Cl)c1 | < 100 nM
CC(=O)Nc1cc(-c2cc(-c3ccc(Cl)cc3Cl)c(-c3ncc[nH]3)s2)ncn1 | < 100 nM
Cc1nn2ccccc2c1-c1cc(-c2ccc(Cl)cc2Cl)c(-c2ncc[nH]2)s1 | < 100 nM
Cc1nn2ccccc2c1-c1nc(-c2ccc[nH]2)c(-c2nc[nH]n2)s1 | 100 to 1000 nM
Cc1nn2ccccc2c1-c1nc(-c2ccsc2)c(-c2nnc[nH]2)s1 | < 100 nM
N#Cc1c(-c2ccnc(NC(=O)C3CC3)c2)sc(-c2ncc[nH]2)c1-c1ccc(Cl)cc1Cl | < 100 nM
Cc1nn2ccccc2c1-c1nc(Cc2ccccc2)c(-c2nnc[nH]2)s1 | 100 to 1000 nM
Cc1nc2ccc(CNCCCN)cn2c1-c1nc(-c2ccccc2)c(-c2nnc[nH]2)s1 | < 100 nM
N#Cc1c(-c2ccnc(N)c2)sc(-c2ncc[nH]2)c1-c1ccc(Cl)cc1Cl | < 100 nM
CC(=O)Nc1cc(-c2sc(-c3nccn3C)c(-c3ccc(Cl)cc3Cl)c2C#N)ccn1 | 100 to 1000 nM
COc1cccc(F)c1-c1nc(-c2c(C)nn3ccc(OCCN4CCOCC4)cc23)sc1-c1nc[nH]n1 | < 100 nM
COC(=O)c1cccc(-c2nc(-c3c(C)nn4ccccc34)sc2-c2nc[nH]n2)c1 | 100 to 1000 nM

The next lines start with the values.

IC50 | Compound
100 to 1000 nM | CNCC(=O)Nc1cc(-c2sc(-c3nnc[nH]3)c(-c3ccc(Cl)cc3Cl)c2C#N)ccn1
< 100 nM | O=C(Nc1cc(-c2nc(-c3ccc(Cl)cc3Cl)c(-c3ncc[nH]3)s2)ccn1)C1CC1
< 100 nM | CC(=O)Nc1cc(-c2nc(-c3ccccc3)c(-c3nnc[nH]3)s2)ccn1
100 to 1000 nM | CCOc1nc(-c2ccnc(NC(=O)C(C)C)c2)sc1-c1nnc[nH]1
100 to 1000 nM | CCNc1cc(-c2nc(-c3cc(CCN)ccc3Cl)c(-c3ncc[nH]3)s2)ccn1
100 to 1000 nM | O=C(CCN1CCOCC1)Nc1cc(-c2nc(-c3ccccc3)c(-c3nnc[nH]3)s2)ccn1
100 to 1000 nM | CC(=O)Nc1cc(-c2nc(-c3cccc(OC(F)(F)F)c3)c(-c3ncc[nH]3)s2)ccn1
100 to 1000 nM | CCOc1nc(-c2ccnc(NC(=O)c3cccc(OC)c3)c2)sc1-c1nnc[nH]1
< 100 nM | Cc1nn2ccccc2c1-c1nc(OCc2ccccc2)c(-c2nnc[nH]2)s1
< 100 nM | CCC(=O)Nc1cc(-c2sc(-c3nnc[nH]3)c(-c3ccc(Cl)cc3Cl)c2C#N)ccn1
100 to 1000 nM | C[C@H](O)C(=O)Nc1cc(-c2sc(-c3nnc[nH]3)c(-c3ccc(Cl)cc3Cl)c2C#N)ccn1
100 to 1000 nM | CN(C)CC(=O)Nc1cc(-c2sc(-c3nnc[nH]3)c(-c3ccc(Cl)cc3Cl)c2C#N)ccn1
< 100 nM | c1ccc(-c2nc(-c3ccnc4[nH]ccc34)sc2-c2nnc[nH]2)cc1
100 to 1000 nM | COC(=O)c1ccc(-c2nc(-c3ccnc(NC(C)=O)c3)sc2-c2ncc[nH]2)cc1
< 100 nM | N#Cc1c(-c2ccnc(NC(=O)C3CC3)c2)sc(-c2nnc[nH]2)c1-c1ccc(Cl)cc1Cl
100 to 1000 nM | CCOc1nc(-c2ccnc(NC(=O)Cc3ccccc3)c2)sc1-c1nnc[nH]1
< 100 nM | CCCOc1nc(-c2c(C)nn3ccccc23)sc1-c1nnc[nH]1
100 to 1000 nM | CC(=O)Nc1cc(-c2nc(-c3cccc(C(F)(F)F)c3)c(-c3ncc[nH]3)s2)ccn1
100 to 1000 nM | Nc1cc(-c2nc(-c3ccccc3)c(-c3nnc[nH]3)s2)ccn1

IC50 | Compound
< 100 nM | CCOc1nc(-c2ccnc(NC(=O)CCc3ccccc3)c2)sc1-c1nnc[nH]1
< 100 nM | c1ccc(-c2nc(-c3ccnc4ccsc34)sc2-c2nnc[nH]2)cc1
< 100 nM | CC(=O)Nc1cc(-c2nc(-c3ccccc3C)c(-c3ncc[nH]3)s2)ccn1
100 to 1000 nM | CC(=O)Nc1cc(-c2nc(-c3ccc(O)cc3)c(-c3ncc[nH]3)s2)ccn1
100 to 1000 nM | CC(=O)Nc1cc(-c2nc(-c3c(C)cccc3C)c(-c3nnc[nH]3)s2)ccn1
< 100 nM | CC(=O)Nc1cc(-c2nc(-c3cc4ccccc4s3)c(-c3ncc[nH]3)s2)ccn1
100 to 1000 nM | CCOc1nc(-c2ccnc(NC(=O)COC)c2)sc1-c1nnc[nH]1
< 100 nM | COC(=O)Nc1cc(-c2nc(-c3ccc(Cl)cc3Cl)c(-c3nnc(N)[nH]3)s2)ccn1
< 100 nM | COC(=O)Nc1cc(-c2nc(-c3ccc(Cl)cc3Cl)c(-c3ncc[nH]3)s2)ccn1
< 100 nM | CCOC(=O)Nc1cc(-c2nc(OCC)c(-c3nc[nH]n3)s2)ccn1
< 100 nM | CC(=O)Nc1cc(-c2nc(-c3cc(CO)ccc3Cl)c(-c3ncc[nH]3)s2)ccn1
< 100 nM | CC(=O)Nc1cc(-c2nc(-c3ccc(Cl)c(Cl)c3)c(-c3ncc[nH]3)s2)ccn1
100 to 1000 nM | CCOc1nc(-c2ccnc(NC(=O)c3ccc(OC)cc3)c2)sc1-c1nnc[nH]1
100 to 1000 nM | CCNC(=O)Nc1cc(-c2nc(OCC)c(-c3nc[nH]n3)s2)ccn1
100 to 1000 nM | CC(=O)Nc1cc(-c2nc(-c3ccc(Cl)cc3Cl)c(-c3nc(C#N)c[nH]3)s2)ccn1
100 to 1000 nM | CC(=O)Nc1cc(-c2nc(-c3ccccc3)c(-c3nnc[nH]3)s2)cc(C)n1
100 to 1000 nM | CC(=O)Nc1cc(-c2nc(-c3cc(C(=O)N4CCCC4)ccc3F)c(-c3ncc[nH]3)s2)ccn1
< 100 nM | CCOc1nc(-c2ccnc(NC(=O)c3ccno3)c2)sc1-c1nnc[nH]1
